Laboratory results taken from patent publication US20090264415A2 (priority 2004, published 2009).
Like-named read-outs stand apart in the source and are kept apart here.

Tests used:
[1] = test system: peripheral blood mononuclear cells (PBMC) stimulated with allogeneic PBMC or EBV-transformed human B cells (RPMI1788); test: Mixed lymphocyte reaction (MLR) assay; format: cell-based
How it was run: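 Compounds, held as 10 mM DMSO stocks and diluted in culture medium, were added to PBMC stimulated by 30 Gy-irradiated allogeneic PBMC or RPMI1788 cells. Proliferation was read as [3H]-thymidine uptake (1 μCi, final 16 h) after 5 days at 37° C. Inhibition was derived from cpm.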

[2] = test system: production of human TNF-α by PBMC in response to LPS; test: TNF-α assay (LPS-stimulated PBMC, sandwich ELISA); format: cell-based
Procedure: Peripheral blood mononuclear cells (herein referred as PBMC), in response to stimulation by lipopolysaccharide (hereinafter LPS), a gram-negative bacterial endotoxin, produce various […], in particular human TNF-α. Inhibition of the activation of PBMC can therefore be measured by the level of suppression of the production of TNF-α by PBMC in response to stimulation by LPS. Inhibition measurement was performed as follows: PBMC were isolated from heparinized peripheral blood by density gradient centrifugation over Lymphoprep (commercially available from Nycomed, Norway). LPS was then added to the PMBC suspension in complete medium (10^6 cells/ml) at a final concentration of 1 μg/ml. The pteridine derivative to be tested was added at different concentrations (0.1 μM, 1 μM and 10 μM) and the cells were incubated at 37° C. for 72 hours in 5% CO2. The supernatants were collected, then TNF-α concentrations were measured with respectively an anti-TNF-α antibody in a sandwich ELISA (Duo Set ELISA human TNFα, commercially available from R&D Systems, United Kingdom). The colorimetric reading of the ELISA was measured by a Multiskan RC plate reader (commercially available from ThermoLabsystems, Finland) at 450 nm (reference wavelength: 690 nm). Data analysis was performed with Ascent software 2.6. (also from ThermoLabsystems, Finland): a standard curve (recombinant human TNFα) was drawn and the amount (pg/ml) of each sample on the standard curve was determined. The % suppression of human TNFα production by the pyrido[3,2-d]pyrimidine derivatives of the invention was calculated using the formula: [formula]

[3] = Homo sapiens, RPMI-1788, 50% suppression of the MLR, [3H]-thymidine incorporation, read-out: MLR
[4] = Homo sapiens, PBMC, LPS 1 μg/ml, 72 hours, read-out: TNF α
[5] = 50% suppression of the MLR, [3H]-thymidine incorporation, read-out: MLR
[6] = LPS 1 μg/ml, 72 hours, read-out: TNF α

| SMILES | IC50 [1, 3] [µM] | IC50 [2, 4] [µM] | IC50 [1, 5] [µM] | IC50 [2, 6] [µM] | other results |
| --- | --- | --- | --- | --- | --- |
| COc1ccc(-c2ccc3nc(N)nc(OCCOc4ccccc4)c3n2)cc1OC [Example 25, 2-amino-4-(2-phenoxyethoxy)-6-(3,4-dimethoxyphenyl)-pyrido[3,2-d]pyrimidine] | 0.3 | 0.7 | – | – | – |
| COc1ccc(-c2ccc3nc(N)nc(Nc4cccc(Br)c4)c3n2)cc1OC [Example 29, 2-amino-4-(3-bromo-anilino)-6-(3,4-dimethoxyphenyl)pyrido[3,2-d]-pyrimidine] | 0.7 | 0.8 | – | – | – |
| Cc1csc(-c2ccc3nc(N)nc(N4CCOCC4)c3n2)c1 [Example 239, 2-amino-4-morpholino-6-(4-methyl-2-thienyl)-pyrido[3,2-d]pyrimidine] | 4.6 | 4.9 | – | – | – |
| COc1ccc(-c2ccc3nc(N)nc(N4CCCC(C(=O)NCC(C)C)C4)c3n2)cc1OC (stereo not drawn) [Example 268, 2-amino-4-[(3-carboxylic acid isobutylamide)-piperidin-1-yl]-6-(3,4-dimethoxyphenyl)-pyrido[3,2-d]pyrimidine] | 0.5 | 0.7 | – | – | – |
| COc1ccc(-c2ccc3nc(N)nc(N4CC[C@@H](NC(=O)COc5ccc(Cl)cc5)C4)c3n2)cc1OC [Example 267] | 0.7 | 2.5 | – | – | – |
| COc1ccc(-c2ccc3nc(N)nc(NCCCNC(=O)COc4ccc(Cl)cc4)c3n2)cc1OC [Example 266, 2-amino-4-[3-N-(4-chlorophenoxy-acetyl)-3-amino-propane-amine-1-N-yl]-6-(3,4-dimethoxyphenyl)-pyrido[3,2-d]pyrimidine] | 0.7 | 0.9 | – | – | – |
| Nc1nc(N2CCOCC2)c2nc(-c3ccncc3)ccc2n1 [Example 234, 2-amino-4-morpholino-6-(4-pyridinyl)-pyrido[3,2-d]pyrimidine] | 0.7 | 0.5 | – | – | – |
| COc1ccc(-c2ccc3nc(N)nc(N4CCN(Cc5ccccc5)CC4)c3n2)cc1OC [Example 52, 2-amino-4-(1-benzylpiperazin-1-yl)-6-(3,4-dimethoxyphenyl)-pyrido[3,2-d]pyrimidine] | – | – | 0.8 | 0.46 | – |
| Cc1cccc(NC(=O)N2CCN(c3nc(N)nc4ccc(-c5ccc6c(c5)OCO6)nc34)CC2)c1 [Example 196, 2-amino-4-[N-(3-methyl-phenyl-carbamoyl)-piperazin-1-yl]-6-(3,4-methylenedioxyphenyl)-pyrido[3,2-d]pyrimidine] | 0.03 | 5.3 | – | – | – |
| COc1ccc(-c2ccc3nc(N)nc(NCc4ccccn4)c3n2)cc1OC [Example 35, 2-amino-4-[2-(aminomethyl)pyridino]-6-(3,4-dimethoxyphenyl)-pyrido[3,2-d]pyrimidine] | – | – | 0.8 | 0.7 | – |
| Nc1nc(N2CCOCC2)c2nc(-c3ccc(Cl)s3)ccc2n1 [Example 241, 2-amino-4-morpholino-6-(5-chloro-2-thienyl)-pyrido[3,2-d]pyrimidine] | 2.2 | 5.4 | – | – | – |
| COc1ccc(-c2ccc3nc(N)nc(N4CC[C@H](N)C4)c3n2)cc1OC [Example 219, 2-amino-4-[(S)-3-(amino)pyrrolidine]-6-(3,4-dimethoxyphenyl)-pyrido[3,2-d]pyrimidine] | 5.5 | 1.9 | – | – | – |
| CCOc1ccc(-c2ccc3nc(N)nc(N4CCOCC4)c3n2)cc1F [Example 166, 2-amino-4-morpholino-6-(3-fluoro-4-ethoxy-phenyl)-pyrido[3,2-d]pyrimidine] | 0.7 | 0.8 | – | – | – |
| COc1ccc(-c2ccc3ncnc(N4CCNCC4)c3n2)cc1C [Example 116, 4-(piperazin-1-yl)-6-(3-methyl-4-methoxyphenyl)-pyrido[3,2-d]pyrimidine] | 5.1 | 8.1 | – | – | – |
| CC(=O)N1CCN(c2nc(N)nc3ccc(-c4ccc5c(c4)OCCO5)nc23)CC1 [Example 199, 2-amino-4-[N-acetyl-piperazin-1-yl]-6-(1,4-benzodioxane)-pyrido[3,2-d]pyrimidine] | 4.8 | 2.9 | – | – | – |
| CCOc1ccc(-c2ccc3nc(N)nc(N4CCOCC4)c3n2)cc1OC [Example 97, 2-amino-4-(N-morpholino)-6-(4-ethoxy-3-methoxyphenyl)-pyrido[3,2-d]pyrimidine] | – | – | 0.5 | 0.3 | – |
| COc1cc(-c2ccc3nc(N)nc(N4CCN(C(=O)Nc5ccc(F)cc5)CC4)c3n2)ccc1OC(C)C [Example 103, 2-amino-4-[(N-4-fluoro-phenyl-carbamoyl)-piperazin-1-yl]-6-(4-isopropoxy-3-methoxy-phenyl)-pyrido[3,2-d]pyrimidine] | – | – | 0.07 | 6.4 | – |

| SMILES | IC50 [1, 3] [µM] | IC50 [2, 4] [µM] | IC50 [1, 5] [µM] | IC50 [2, 6] [µM] | other results |
| --- | --- | --- | --- | --- | --- |
| Nc1nc(N2CCN(C(=O)COc3ccc(Cl)cc3)CC2)c2nc(-c3ccc4c(c3)OCO4)ccc2n1 [Example 193, 2-amino-4-[N-(4-chlorophenoxy-acetyl)-piperazin-1-yl]-6-(3,4-methylenedioxyphenyl)-pyrido[3,2-d]pyrimidine] | 0.04 | 5.8 | – | – | – |
| COc1ccc(-c2ccc3nc(N)nc(Nc4ccc5c(c4)OCO5)c3n2)cc1OC [Example 28, 2-amino-4-[3,4-(methylenedioxy)aniline]-6-(3,4-dimethoxyphenyl)pyrido[3,2-d]pyrimidine] | – | – | 0.7 | 0.8 | – |
| Nc1nc(N2CCN(CC(=O)Nc3nccs3)CC2)c2nc(-c3ccc4c(c3)OCCO4)ccc2n1 [Example 201] | 0.8 | 3.4 | – | – | – |
| COc1nc(N2CCN(C(=O)Nc3cccc(C)c3)CC2)c2nc(-c3ccc(OC)c(OC)c3)ccc2n1 [Example 90, 2-methoxy-4-[(N-3-methyl-phenylcarbamoyl)-piperazin-1-yl]-6-(3,4-dimethoxy-phenyl)-pyrido[3,2-d]pyrimidine] | – | – | 0.14 | 0.5 | – |
| Nc1nc(N2CCOCC2)c2nc(-c3cccs3)ccc2n1 [Example 238, 2-amino-4-morpholino-6-(2-thienyl)-pyrido[3,2-d]pyrimidine] | 0.8 | 2.8 | – | – | – |
| COc1cc(-c2ccc3nc(N)nc(N4CCOCC4)c3n2)ccc1OC(C)C [Example 99, 2-amino-4-(N-morpholino)-6-(4-isopropoxy-3-methoxy-phenyl)-pyrido[3,2-d]pyrimidine] | – | – | 0.7 | 1 | – |
| Nc1nc(N2CCOCC2)c2nc(-c3ccco3)ccc2n1 [Example 232, 2-amino-4-morpholino-6-(2-furan)-pyrido[3,2-d]pyrimidine] | – | – | 5.3 | 5.3 | – |
| COc1ccc(-c2ccc3nc(N)nc(NC4CCN(C(=O)Nc5cccc(C)c5)CC4)c3n2)cc1OC [Example 263] | 0.07 | 0.5 | – | – | – |
| COc1ccc(-c2ccc3nc(N)nc(NCCN4CCOCC4)c3n2)cc1OC [Example 33, 2-amino-4-[4-(2-aminoethyl)morpholino]-6-(3,4-dimethoxyphenyl)-pyrido[3,2-d]pyrimidine] | – | – | 1.9 | 0.7 | – |
| COc1cc(-c2ccc3nc(N)nc(N4CCN(C(=O)Nc5cccc(C)c5)CC4)c3n2)ccc1O [Example 104, 2-amino-4-[(N-3-methyl-phenyl-carbamoyl)-piperazin-1-yl]-6-(4-hydroxy-3-methoxyphenyl)-pyrido[3,2-d]pyrimidine] | – | – | 0.4 | 0.3 | – |
| COc1ccc(-c2ccc3nc(N)nc(NCC(OC)OC)c3n2)cc1OC [Example 34, 2-amino-4-(2,2-dimethoxyethylamino)-6-(3,4-dimethoxyphenyl)pyrido[3,2-d]pyrimidine] | – | – | – | – | IC50 ([1]; Homo sapiens, RPMI-1788, read-out: MLR (μM)): 0.8 µM; IC50 ([2]; Homo sapiens, PBMC, 72 h, read-out: TNF α (μM)): 0.6 µM |
| Clc1ccc(-c2ccc3ncnc(N4CCOCC4)c3n2)cc1 [Example 124, 4-morpholino-6-(4-chlorophenyl)-pyrido[3,2-d]pyrimidine] | 7.2 | 10 | – | – | – |
| COc1ccc(-c2ccc3nc(N)nc(N4CCCN(C(=O)Nc5cccc(C)c5)CC4)c3n2)cc1OC [Example 250, 2-amino-4-[(N-3-methylphenylcarbamoyl)-homopiperazin-1-yl]-6-(3,4-dimethoxyphenyl)-pyrido[3,2-d]pyrimidine] | 0.0085 | 0.6 | – | – | – |
| COc1ccc(-c2ccc3nc(N)nc(N4CCOCC4)c3n2)cc1C [Example 163, 2-amino-4-(morpholino)-6-(3-methyl-4-methoxyphenyl)pyrido[3,2-d]pyrimidine] | 3.6 | 6.5 | – | – | – |
| COc1ccc(-c2ccc3nc(N)nc(N4CC[C@H](NC(=O)COc5ccc(Cl)cc5)C4)c3n2)cc1OC [Example 220] | 4.3 | 1.8 | – | – | – |
| COc1ccc(-c2ccc3nc(N)nc(NC4CCN(C(=O)OC(C)(C)C)CC4)c3n2)cc1OC [Example 255, 2-amino-4-[(1-Boc-piperidin-4-yl)amino]-6-(3,4-dimethoxyphenyl)-pyrido[3,2-d]pyrimidine] | 0.06 | 0.04 | – | – | – |
